Laboratory results taken from PubChem BioAssay (NCI).
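Five concentrations, 48 hours, 96-well plates. GI50 marks 50% less growth. TGI is the concentration that stops growth completely.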

Columns and labels:
Experiment in all cases: NCI tumour cell line growth inhibition, 48 h
[1] = system: MDA-MB-231 breast
[2] = system: MOLT-4 leukemia
[3] = system: SNB-19 CNS
[4] = system: UACC-257 melanoma
[5] = system: OVCAR-4 ovarian
[6] = system: SF-295 CNS
[7] = system: HL-60(TB) leukemia
[8] = system: NCI-H23 lung
[9] = system: CCRF-CEM leukemia
[10] = system: RPMI-8226 leukemia
[11] = system: SF-268 CNS
[12] = system: SK-MEL-5 melanoma
[13] = system: LOX IMVI melanoma
[14] = system: CAKI-1 renal
[15] = system: TK-10 renal
[16] = system: SK-MEL-2 melanoma
[17] = system: OVCAR-8 ovarian
[18] = system: HCT-116 colon
[19] = system: T-47D breast
[20] = system: SW-620 colon
[21] = system: HOP-62 NSCLC
[22] = system: SF-539 CNS
[23] = system: HS 578T breast
[24] = system: IGROV1 ovarian
[25] = system: OVCAR-3 ovarian
[26] = system: MDA-MB-435
[27] = system: HCT-15 colon
[28] = system: NCI/ADR-RES ovarian
[29] = system: NCI-H522 lung
[30] = system: COLO 205 colon
[31] = system: SK-OV-3 ovarian
[32] = system: K-562 leukemia
[33] = system: SK-MEL-28 melanoma
[34] = system: A498 renal
[35] = system: NCI-H226 lung
[36] = system: M14 melanoma
[37] = system: EKVX NSCLC
[38] = system: OVCAR-5 ovarian
[39] = system: MALME-3M melanoma
[40] = system: 786-0 renal
[41] = system: BT-549 breast
[42] = system: ACHN renal
[43] = system: DU-145 prostate
[44] = system: SN12C renal
[45] = system: A549 NSCLC
[46] = system: KM12 colon
[47] = system: UACC-62 melanoma
[48] = system: MCF7 breast
[49] = system: U251 CNS
[50] = system: UO-31 renal
[51] = system: SR leukemia
[52] = system: HT29 colon
[53] = system: PC-3 prostate
[54] = system: SNB-75 CNS
[55] = system: HCC-2998 colon
[56] = system: HOP-92 NSCLC
[57] = system: NCI-H460 lung
[58] = system: RXF 393 renal

## N#CCCOc1cccc(C2(N3CCCCC3)CCCCC2)c1
[1]
  TGI: > 100 µM
[2]
  TGI: > 100 µM
[3]
  TGI: > 100 µM
[4]
  TGI: > 100 µM
[5]
  TGI: > 100 µM
[6]
  TGI: > 100 µM
[7]
  TGI: > 100 µM
[8]
  TGI: > 100 µM
[9]
  TGI: > 100 µM
[10]
  TGI: > 100 µM
[11]
  TGI: > 100 µM
[12]
  TGI: > 100 µM
[13]
  TGI: > 100 µM
[14]
  TGI: > 100 µM
[15]
  TGI: > 100 µM
[16]
  TGI: > 100 µM
[17]
  TGI: > 100 µM
[18]
  TGI: > 100 µM
[19]
  TGI: > 100 µM
[20]
  TGI: > 100 µM
[21]
  TGI: > 100 µM
[22]
  TGI: > 100 µM
[23]
  TGI: > 100 µM
[24]
  TGI: > 100 µM
[25]
  TGI: > 100 µM
[26]
  TGI: > 100 µM
[27]
  TGI: > 100 µM
[28]
  TGI: > 100 µM
[29]
  TGI: > 100 µM
[30]
  TGI: > 100 µM
[31]
  TGI: > 100 µM
[32]
  TGI: > 100 µM
[33]
  TGI: > 100 µM
[34]
  TGI: > 100 µM
[35]
  TGI: > 100 µM
[36]
  TGI: > 100 µM
[37]
  TGI: > 100 µM
[38]
  TGI: > 100 µM
[39]
  TGI: > 100 µM
[40]
  TGI: > 100 µM
[41]
  TGI: > 100 µM
[42]
  TGI: > 100 µM
[43]
  TGI: > 100 µM
[44]
  TGI: > 100 µM
[45]
  TGI: > 100 µM
[46]
  TGI: > 100 µM
[47]
  TGI: > 100 µM
[48]
  TGI: > 100 µM
[49]
  TGI: > 100 µM
[50]
  TGI: > 100 µM
[51]
  TGI: > 100 µM
[52]
  TGI: > 100 µM
[53]
  TGI: > 100 µM

## Cc1cccc2c(C(=O)O[C@H](C(N)=O)[C@]3(C)CO3)cccc12
[1]
  GI50: 1.99 µM
  TGI: 6.57 µM
[3]
  GI50: 5.23 µM
  TGI: > 61.7 µM
[4]
  GI50: 4.38 µM
  TGI: > 41.8 µM
[5]
  GI50: 3.39 µM
  TGI: > 55.9 µM
[6]
  GI50: 2.11 µM
  TGI: 19.2 µM
[7]
  GI50: > 100 µM
  TGI: > 100 µM
[8]
  GI50: 1.13 µM
  TGI: 3.11 µM
[9]
  GI50: 0.599 µM
[10]
  GI50: 1.71 µM
[11]
  GI50: 2.3 µM
  TGI: > 100 µM
[12]
  GI50: 1.23 µM
  TGI: 3.04 µM
[13]
  GI50: 0.0926 µM
  TGI: 1.78 µM
[14]
  GI50: 1.33 µM
  TGI: 11.6 µM
[15]
  GI50: 6.02 µM
  TGI: 33.3 µM
[16]
  GI50: 1.72 µM
  TGI: 8.96 µM
[17]
  GI50: 0.465 µM
  TGI: 26.8 µM
[18]
  GI50: 0.135 µM
  TGI: 5.51 µM
[19]
  GI50: 2.75 µM
  TGI: 15.9 µM
[20]
  GI50: 0.351 µM
  TGI: > 79.9 µM
[21]
  GI50: 1.12 µM
  TGI: 4.66 µM
[22]
  GI50: 0.496 µM
  TGI: 1.57 µM
[23]
  GI50: 3.52 µM
  TGI: > 26.8 µM
[24]
  GI50: 0.817 µM
  TGI: > 22.4 µM
[25]
  GI50: 2.07 µM
  TGI: 13.3 µM
[26]
  GI50: 4.75 µM
  TGI: 26.8 µM
[27]
  GI50: 1.69 µM
  TGI: 7.7 µM
[28]
  GI50: 0.904 µM
  TGI: 6.34 µM
[29]
  GI50: 1.39 µM
  TGI: 7.82 µM
[30]
  GI50: 2.37 µM
  TGI: 13.4 µM
[54]
  GI50: 2.81 µM
  TGI: 13.1 µM
[31]
  GI50: 7.48 µM
  TGI: 24.4 µM
[33]
  GI50: 1.91 µM
  TGI: 5.49 µM
[34]
  GI50: 13.3 µM
  TGI: 41.2 µM
[35]
  GI50: 0.556 µM
  TGI: 2.21 µM
[36]
  GI50: 0.938 µM
  TGI: 2.88 µM
[37]
  GI50: 3.93 µM
  TGI: 13.5 µM
[38]
  GI50: 3.12 µM
  TGI: > 34.4 µM
[39]
  GI50: 3.97 µM
  TGI: 10.6 µM
[55]
  GI50: 1.24 µM
  TGI: 3.33 µM
[40]
  GI50: 1.4 µM
  TGI: 8.21 µM
[41]
  GI50: 1.95 µM
  TGI: 6.07 µM
[56]
  GI50: 2.28 µM
  TGI: 11.4 µM
[42]
  GI50: 0.302 µM
  TGI: 2.67 µM
[43]
  GI50: 1.17 µM
  TGI: 5.89 µM
[44]
  GI50: 0.271 µM
  TGI: 2.58 µM
[45]
  GI50: 3.66 µM
  TGI: > 100 µM
[46]
  GI50: 6.65 µM
  TGI: 42.9 µM
[47]
  GI50: 0.481 µM
  TGI: 1.75 µM
[48]
  GI50: 0.342 µM
  TGI: > 100 µM
[49]
  GI50: 0.69 µM
  TGI: 8.07 µM
[57]
  GI50: 4.31 µM
  TGI: > 41.5 µM
[50]
  GI50: 1.49 µM
  TGI: 7.15 µM
[52]
  GI50: 0.693 µM
[58]
  GI50: 3.76 µM
  TGI: > 100 µM
[53]
  GI50: 1.83 µM
  TGI: > 22.5 µM
